Data: ChEMBL document CHEMBL5316328, “Discovery of AXL Degraders with Improved Potencies in Triple-Negative Breast Cancer (TNBC) Cells” (J Med Chem, 2023)

target: von Hippel-Lindau disease tumor suppressor/Tyrosine-protein kinase receptor UFO (Homo sapiens, UniProt P30530+P40337); assay: PROTAC activity at VHL/AXL in human MDA-MB-231 cells assessed as induction of AXL degradation incubated for 24 hrs by immunoblot analysis; format: cell-based; conditions: not given
Sequence (P30530 whole entry): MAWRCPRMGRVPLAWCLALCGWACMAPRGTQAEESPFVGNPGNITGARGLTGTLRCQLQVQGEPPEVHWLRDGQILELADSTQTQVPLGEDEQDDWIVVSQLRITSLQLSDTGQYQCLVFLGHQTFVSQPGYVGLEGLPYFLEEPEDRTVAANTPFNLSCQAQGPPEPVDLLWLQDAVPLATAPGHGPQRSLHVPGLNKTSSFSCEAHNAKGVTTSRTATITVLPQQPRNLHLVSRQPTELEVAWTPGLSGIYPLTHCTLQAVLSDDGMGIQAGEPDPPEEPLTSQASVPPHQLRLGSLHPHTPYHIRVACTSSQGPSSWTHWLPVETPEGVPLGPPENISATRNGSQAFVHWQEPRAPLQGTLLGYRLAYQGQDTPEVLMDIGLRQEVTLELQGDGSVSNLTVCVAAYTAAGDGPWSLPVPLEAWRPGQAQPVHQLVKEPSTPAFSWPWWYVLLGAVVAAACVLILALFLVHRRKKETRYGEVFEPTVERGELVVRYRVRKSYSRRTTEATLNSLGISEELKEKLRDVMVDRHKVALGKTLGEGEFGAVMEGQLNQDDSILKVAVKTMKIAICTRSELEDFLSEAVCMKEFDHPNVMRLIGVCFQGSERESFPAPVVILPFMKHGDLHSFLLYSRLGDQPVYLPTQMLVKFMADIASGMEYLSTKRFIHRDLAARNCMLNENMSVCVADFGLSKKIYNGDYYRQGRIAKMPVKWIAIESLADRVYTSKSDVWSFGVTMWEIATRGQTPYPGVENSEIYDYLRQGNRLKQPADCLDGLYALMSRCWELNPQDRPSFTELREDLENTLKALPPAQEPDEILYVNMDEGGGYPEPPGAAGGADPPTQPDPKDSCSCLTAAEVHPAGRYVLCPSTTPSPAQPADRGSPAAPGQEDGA
Sequence (P40337 whole entry): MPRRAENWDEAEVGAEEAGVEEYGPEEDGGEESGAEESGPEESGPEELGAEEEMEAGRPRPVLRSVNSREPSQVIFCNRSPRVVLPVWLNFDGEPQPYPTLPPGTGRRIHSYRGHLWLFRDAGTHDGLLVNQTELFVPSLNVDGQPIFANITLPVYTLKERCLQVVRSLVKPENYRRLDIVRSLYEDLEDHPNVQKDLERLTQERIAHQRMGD

EC50 [µM]	SMILES
> 10	CCc1ccc2c(c1)c(=O)c(C(=O)Nc1ccc(Oc3ncnc4cc(OCCCCCCCCCCCC(=O)N[C@H](C(=O)N5C[C@H](O)C[C@H]5C(=O)NCc5ccc(-c6scnc6C)cc5)C(C)(C)C)c(OC)cc34)c(F)c1)c(C)n2C
> 10	CCc1ccc2c(c1)c(=O)c(C(=O)Nc1ccc(Oc3ncnc4cc(OCCCCCCCC(=O)N[C@H](C(=O)N5C[C@H](O)C[C@H]5C(=O)NCc5ccc(-c6scnc6C)cc5)C(C)(C)C)c(OC)cc34)c(F)c1)c(C)n2C
> 10	CCc1ccc2c(c1)c(=O)c(C(=O)Nc1ccc(Oc3ncnc4cc(OCCCC(=O)N[C@H](C(=O)N5C[C@H](O)C[C@H]5C(=O)NCc5ccc(-c6scnc6C)cc5)C(C)(C)C)c(OC)cc34)c(F)c1)c(C)n2C
> 10	CCc1ccc2c(c1)c(=O)c(C(=O)Nc1ccc(Oc3ncnc4cc(OCC(=O)N[C@H](C(=O)N5C[C@H](O)C[C@H]5C(=O)NCc5ccc(-c6scnc6C)cc5)C(C)(C)C)c(OC)cc34)c(F)c1)c(C)n2C
> 10	CCc1ccc2c(c1)c(=O)c(C(=O)Nc1ccc(Oc3ncnc4cc(OCCCCCC(=O)N[C@H](C(=O)N5C[C@H](O)C[C@H]5C(=O)NCc5ccc(-c6scnc6C)cc5)C(C)(C)C)c(OC)cc34)c(F)c1)c(C)n2C
> 10	CCc1ccc2c(c1)c(=O)c(C(=O)Nc1ccc(Oc3ncnc4cc(OCCCCCCCCCC(=O)N[C@H](C(=O)N5C[C@H](O)C[C@H]5C(=O)NCc5ccc(-c6scnc6C)cc5)C(C)(C)C)c(OC)cc34)c(F)c1)c(C)n2C

target: Protein cereblon/Tyrosine-protein kinase receptor UFO (Homo sapiens, UniProt P30530+Q96SW2); assay: PROTAC activity at CRBN/AXL in human MDA-MB-231 cells assessed as induction of AXL degradation incubated for 24 hrs by immunoblot analysis; format: cell-based; conditions: not given
Sequence (P30530 whole entry): as the sequence (P30530 whole entry) above
Sequence (Q96SW2 whole entry): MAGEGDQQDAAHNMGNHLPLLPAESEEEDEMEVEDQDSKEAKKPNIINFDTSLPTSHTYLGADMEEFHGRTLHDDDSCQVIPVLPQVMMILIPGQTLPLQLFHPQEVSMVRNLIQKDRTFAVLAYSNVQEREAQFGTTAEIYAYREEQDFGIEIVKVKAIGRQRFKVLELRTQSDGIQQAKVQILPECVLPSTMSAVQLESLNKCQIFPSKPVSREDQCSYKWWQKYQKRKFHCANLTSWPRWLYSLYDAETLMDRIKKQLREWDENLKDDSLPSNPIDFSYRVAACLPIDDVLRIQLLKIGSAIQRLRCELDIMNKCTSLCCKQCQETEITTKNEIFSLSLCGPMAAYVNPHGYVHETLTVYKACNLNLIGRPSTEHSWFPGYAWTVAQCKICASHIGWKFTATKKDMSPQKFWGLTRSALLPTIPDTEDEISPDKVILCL

SMILES	EC50 [µM]
CCc1ccc2c(c1)c(=O)c(C(=O)Nc1ccc(Oc3ncnc4cc(OCCCCCC(=O)Nc5ccc6c(c5)C(=O)N(C5CCC(=O)NC5=O)C6)c(OC)cc34)c(F)c1)c(C)n2C (centres undefined)	> 10
CCc1ccc2c(c1)c(=O)c(C(=O)Nc1ccc(Oc3ncnc4cc(OCCCCCCCC(=O)Nc5cccc6c5C(=O)N(C5CCC(=O)NC5=O)C6=O)c(OC)cc34)c(F)c1)c(C)n2C (centres undefined)	> 10
CCc1ccc2c(c1)c(=O)c(C(=O)Nc1ccc(Oc3ncnc4cc(OCCCCCC(=O)Nc5ccc6c(c5)C(=O)N(C5CCC(=O)NC5=O)C6=O)c(OC)cc34)c(F)c1)c(C)n2C (centres undefined)	0.04
CCc1ccc2c(c1)c(=O)c(C(=O)Nc1ccc(Oc3ncnc4cc(OCCCCCCCCCCCC(=O)Nc5cccc6c5C(=O)N(C5CCC(=O)NC5=O)C6=O)c(OC)cc34)c(F)c1)c(C)n2C (centres undefined)	> 10
CCc1ccc2c(c1)c(=O)c(C(=O)Nc1ccc(Oc3ncnc4cc(OCCCCCCCCCC(=O)Nc5ccc6c(c5)C(=O)N(C5CCC(=O)NC5=O)C6=O)c(OC)cc34)c(F)c1)c(C)n2C (centres undefined)	> 10
CCc1ccc2c(c1)c(=O)c(C(=O)Nc1ccc(Oc3ncnc4cc(OCCCCCC(=O)Nc5cccc6c5C(=O)N(C5CCC(=O)NC5=O)C6=O)c(OC)cc34)c(F)c1)c(C)n2C (centres undefined)	> 10
CCc1ccc2c(c1)c(=O)c(C(=O)Nc1ccc(Oc3ncnc4cc(OCCCCCCCC(=O)Nc5ccc6c(c5)C(=O)N(C5CCC(=O)NC5=O)C6=O)c(OC)cc34)c(F)c1)c(C)n2C (centres undefined)	0.108
CCc1ccc2c(c1)c(=O)c(C(=O)Nc1ccc(Oc3ncnc4cc(OCCCCCCCCCCCC(=O)Nc5ccc6c(c5)C(=O)N(C5CCC(=O)NC5=O)C6=O)c(OC)cc34)c(F)c1)c(C)n2C (centres undefined)	> 10
CCc1ccc2c(c1)c(=O)c(C(=O)Nc1ccc(Oc3ncnc4cc(OCCCCCC(=O)Nc5cccc6c5CN(C5CCC(=O)NC5=O)C6=O)c(OC)cc34)c(F)c1)c(C)n2C (centres undefined)	> 10
CCc1ccc2c(c1)c(=O)c(C(=O)Nc1ccc(Oc3ncnc4cc(OCCCCCCCCCC(=O)Nc5cccc6c5C(=O)N(C5CCC(=O)NC5=O)C6=O)c(OC)cc34)c(F)c1)c(C)n2C (centres undefined)	> 10
CCc1ccc2c(c1)c(=O)c(C(=O)Nc1ccc(Oc3ncnc4cc(OCCCCC(=O)Nc5cccc6c5C(=O)N(C5CCC(=O)NC5=O)C6=O)c(OC)cc34)c(F)c1)c(C)n2C (centres undefined)	> 10
CCc1ccc2c(c1)c(=O)c(C(=O)Nc1ccc(Oc3ncnc4cc(OCCCCC(=O)Nc5ccc6c(c5)C(=O)N(C5CCC(=O)NC5=O)C6=O)c(OC)cc34)c(F)c1)c(C)n2C (centres undefined)	> 10

The remaining lines, values ahead:

EC50 [µM]	SMILES
> 10	CCc1ccc2c(c1)c(=O)c(C(=O)Nc1ccc(Oc3ncnc4cc(OCC(=O)Nc5ccc6c(c5)C(=O)N(C5CCC(=O)NC5=O)C6=O)c(OC)cc34)c(F)c1)c(C)n2C (centres undefined)
> 10	CCc1ccc2c(c1)c(=O)c(C(=O)Nc1ccc(Oc3ncnc4cc(OCCCCCC(=O)Nc5cccc6c5C(=O)N(C5CCC(=O)NC5=O)C6)c(OC)cc34)c(F)c1)c(C)n2C (centres undefined)
> 10	CCc1ccc2c(c1)c(=O)c(C(=O)Nc1ccc(Oc3ncnc4cc(OCC(=O)Nc5cccc6c5C(=O)N(C5CCC(=O)NC5=O)C6=O)c(OC)cc34)c(F)c1)c(C)n2C (centres undefined)

test system: MDA-MB-231; assay: Antiproliferative activity against human MDA-MB-231 cells expressing AXL assessed as inhibition of cell growth incubated for 72 hrs by CCK8 assay; format: functional, cell-based; conditions: MDA-MB-231, 72 h

IC50 [µM]	SMILES
> 5	CCc1ccc2c(c1)c(=O)c(C(=O)Nc1ccc(Oc3ncnc4cc(OCCCCCC(=O)Nc5ccc6c(c5)CN(C5CCC(=O)N(C)C5=O)C6=O)c(OC)cc34)c(F)c1)c(C)n2C (centres undefined)

test system: MDA-MB-436; assay: Antiproliferative activity against human MDA-MB-436 cells expressing AXL assessed as inhibition of cell growth incubated for 72 hrs by CCK8 assay; format: functional, cell-based; conditions: MDA-MB-436, 72 h

IC50 [µM]	SMILES
> 5	CCc1ccc2c(c1)c(=O)c(C(=O)Nc1ccc(Oc3ncnc4cc(OCCCCCC(=O)Nc5ccc6c(c5)CN(C5CCC(=O)N(C)C5=O)C6=O)c(OC)cc34)c(F)c1)c(C)n2C (centres undefined)

test system: MDA-MB-453; assay: Antiproliferative activity against human MDA-MB-453 cells assessed as inhibition of cell growth incubated for 72 hrs by CCK8 assay; format: functional, cell-based; conditions: MDA-MB-453, 72 h

IC50 [µM]	SMILES
> 5	CCc1ccc2c(c1)c(=O)c(C(=O)Nc1ccc(Oc3ncnc4cc(OCCCCCC(=O)Nc5ccc6c(c5)CN(C5CCC(=O)N(C)C5=O)C6=O)c(OC)cc34)c(F)c1)c(C)n2C (centres undefined)
